Data published in PubChem BioAssay (NCI).
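Growth conditions: 96-well plates. Treatment: test compound, 48 hours, 5 concentrations. Analysis: linear interpolation between bracketing concentrations; unreached endpoints set to highest concentration. Abbreviation: GI50, concentration required for 50% inhibition of growth. TGI: total growth inhibition.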

Legend:
Assay in all cases: NCI anticancer screen, dose series, 48 h
[1] = tested on: MCF7 breast
[2] = tested on: M14 melanoma
[3] = tested on: MDA-MB-435
[4] = tested on: HT29 colon
[5] = tested on: HOP-92 NSCLC
[6] = tested on: HCT-15 colon
[7] = tested on: NCI-H522 lung
[8] = tested on: MALME-3M melanoma
[9] = tested on: MOLT-4 leukemia
[10] = tested on: SF-539 CNS
[11] = tested on: SN12C renal
[12] = tested on: UACC-62 melanoma
[13] = tested on: HCT-116 colon
[14] = tested on: OVCAR-5 ovarian
[15] = tested on: RXF 393 renal
[16] = tested on: U251 CNS
[17] = tested on: CCRF-CEM leukemia
[18] = tested on: A549 NSCLC
[19] = tested on: SK-MEL-28 melanoma
[20] = tested on: UO-31 renal
[21] = tested on: HL-60(TB) leukemia
[22] = tested on: T-47D breast
[23] = tested on: SNB-75 CNS
[24] = tested on: A498 renal
[25] = tested on: COLO 205 colon
[26] = tested on: MDA-MB-231 breast
[27] = tested on: KM12 colon
[28] = tested on: CAKI-1 renal
[29] = tested on: RPMI-8226 leukemia
[30] = tested on: SK-MEL-2 melanoma
[31] = tested on: HS 578T breast
[32] = tested on: SF-268 CNS
[33] = tested on: SNB-19 CNS
[34] = tested on: SR leukemia
[35] = tested on: HCC-2998 colon
[36] = tested on: PC-3 prostate
[37] = tested on: NCI-H226 lung
[38] = tested on: OVCAR-3 ovarian
[39] = tested on: NCI-H460 lung
[40] = tested on: SW-620 colon
[41] = tested on: OVCAR-4 ovarian
[42] = tested on: TK-10 renal
[43] = tested on: K-562 leukemia
[44] = tested on: BT-549 breast
[45] = tested on: 786-0 renal
[46] = tested on: HOP-62 NSCLC
[47] = tested on: NCI-H23 lung
[48] = tested on: ACHN renal
[49] = tested on: SK-MEL-5 melanoma
[50] = tested on: SK-OV-3 ovarian
[51] = tested on: IGROV1 ovarian
[52] = tested on: EKVX NSCLC
[53] = tested on: SF-295 CNS
[54] = tested on: LOX IMVI melanoma
[55] = tested on: DU-145 prostate
[56] = tested on: OVCAR-8 ovarian
[57] = tested on: NCI/ADR-RES ovarian
[58] = tested on: UACC-257 melanoma

CN1C/C=C\CCOc2cccc(c2)-c2ccnc(n2)Nc2cccc(c2)C1
GI50 [1]: 35.4 nM | TGI [1]: 1230 nM | GI50 [2]: 64.4 nM | TGI [2]: 346 nM | GI50 [3]: 62.4 nM | TGI [3]: 195 nM | GI50 [4]: 49.7 nM | TGI [4]: 976 nM | GI50 [5]: 34.9 nM | TGI [5]: 227 nM | GI50 [6]: 43.5 nM | TGI [6]: 1960 nM | GI50 [7]: 70.8 nM | TGI [7]: 334 nM | GI50 [8]: 107 nM | TGI [8]: 454 nM | GI50 [9]: 37.1 nM | TGI [9]: 874 nM | GI50 [10]: 50.8 nM | TGI [10]: 227 nM | GI50 [11]: 55.6 nM | TGI [11]: 1450 nM | GI50 [12]: 25.9 nM | TGI [12]: 148 nM | GI50 [13]: 29.8 nM | TGI [13]: 677 nM | GI50 [14]: 36.9 nM | GI50 [15]: 22.1 nM | TGI [15]: 50.1 nM | GI50 [16]: 37.4 nM | TGI [16]: 678 nM | GI50 [17]: 34.9 nM | TGI [17]: 1040 nM | GI50 [18]: 46.9 nM | TGI [18]: 800 nM | GI50 [19]: 64.1 nM | TGI [19]: 451 nM | GI50 [20]: 32.4 nM | TGI [20]: 460 nM | GI50 [21]: 23.2 nM | TGI [21]: 103 nM | GI50 [22]: 41.3 nM | TGI [22]: 334 nM | GI50 [23]: 54.5 nM | TGI [23]: 169 nM | GI50 [24]: 57.2 nM | TGI [24]: 156 nM | GI50 [25]: 24 nM | TGI [25]: 76.2 nM | GI50 [26]: 59.1 nM | TGI [26]: 859 nM | GI50 [27]: 37.7 nM | TGI [27]: 506 nM | GI50 [28]: 37.3 nM | TGI [28]: 1520 nM | GI50 [29]: 80.4 nM | TGI [29]: 318 nM | GI50 [30]: 39.7 nM | TGI [30]: 132 nM | GI50 [31]: 64.1 nM | TGI [31]: 820 nM | GI50 [32]: 56.1 nM | TGI [32]: 548 nM | GI50 [33]: 57 nM | TGI [33]: 4250 nM | GI50 [34]: 19.6 nM | TGI [34]: 116 nM | GI50 [35]: 80.2 nM | TGI [35]: 630 nM | GI50 [36]: 71.3 nM | TGI [36]: 435 nM | GI50 [37]: 69.2 nM | TGI [37]: 1300 nM | GI50 [38]: 41.9 nM | TGI [38]: 769 nM | GI50 [39]: 39.8 nM | TGI [39]: 1140 nM | GI50 [40]: 43.9 nM | TGI [40]: 4490 nM | GI50 [41]: 113 nM | TGI [41]: 1880 nM | GI50 [42]: 76.2 nM | TGI [42]: 880 nM | GI50 [43]: 93.1 nM | TGI [43]: 6210 nM | GI50 [44]: 78.9 nM | TGI [44]: 393 nM | GI50 [45]: 56.8 nM | TGI [45]: 802 nM | GI50 [46]: 48.2 nM | TGI [46]: 402 nM | GI50 [47]: 71.7 nM | TGI [47]: 599 nM | GI50 [48]: 33.2 nM | TGI [48]: 1490 nM | GI50 [49]: 50.2 nM | TGI [49]: 205 nM | GI50 [50]: 209 nM | TGI [50]: 2160 nM | GI50 [51]: 48.7 nM | TGI [51]: 1310 nM | GI50 [52]: 87.2 nM | TGI [52]: 961 nM | GI50 [53]: 61.6 nM | TGI [53]: 1100 nM | GI50 [54]: 34.3 nM | TGI [54]: 1060 nM | GI50 [55]: 56.2 nM | TGI [55]: 6000 nM | GI50 [56]: 38.5 nM | TGI [56]: 887 nM | GI50 [57]: 65.4 nM | TGI [57]: 1450 nM | GI50 [58]: 72.2 nM | TGI [58]: 371 nM

COC1=CC(=O)c2nc(-c3cccc(C)n3)[nH]c2C1=O
GI50 [1]: 16600 nM | TGI [1]: 35700 nM | GI50 [2]: 35600 nM | TGI [2]: > 100000 nM | GI50 [3]: 35600 nM | TGI [3]: > 100000 nM | GI50 [4]: 33400 nM | TGI [4]: > 100000 nM | GI50 [5]: 17400 nM | TGI [5]: 43700 nM | GI50 [6]: 52500 nM | TGI [6]: > 100000 nM | GI50 [7]: 19100 nM | TGI [7]: 59100 nM | GI50 [8]: 20800 nM | TGI [8]: 64300 nM | GI50 [9]: 64700 nM | TGI [9]: > 100000 nM | GI50 [10]: 18800 nM | TGI [10]: 36700 nM | GI50 [11]: 32900 nM | TGI [11]: > 100000 nM | GI50 [12]: 30300 nM | TGI [12]: > 100000 nM | GI50 [13]: 18000 nM | TGI [13]: 35700 nM | GI50 [14]: 30900 nM | TGI [14]: > 100000 nM | GI50 [15]: > 100000 nM | TGI [15]: > 100000 nM | GI50 [16]: 20400 nM | TGI [16]: 41700 nM | GI50 [17]: 61800 nM | TGI [17]: > 100000 nM | GI50 [18]: 19100 nM | TGI [18]: 39100 nM | GI50 [19]: 31700 nM | TGI [19]: > 100000 nM | GI50 [20]: 26400 nM | TGI [20]: > 100000 nM | GI50 [21]: 76400 nM | TGI [21]: > 100000 nM | GI50 [22]: 15800 nM | TGI [22]: 58100 nM | GI50 [23]: 21200 nM | TGI [23]: 43600 nM | GI50 [24]: 16400 nM | TGI [24]: 35200 nM | GI50 [25]: 26500 nM | TGI [25]: 67700 nM | GI50 [26]: 27100 nM | TGI [26]: 66200 nM | GI50 [27]: 35400 nM | TGI [27]: > 100000 nM | GI50 [28]: 22000 nM | TGI [28]: 54900 nM | GI50 [29]: 27000 nM | TGI [29]: > 100000 nM | GI50 [30]: 52400 nM | TGI [30]: > 100000 nM | GI50 [31]: 25300 nM | TGI [31]: 76700 nM | GI50 [32]: 24700 nM | TGI [32]: 49600 nM | GI50 [33]: 23300 nM | TGI [33]: 60600 nM | GI50 [34]: 30600 nM | TGI [34]: > 100000 nM | GI50 [35]: 35600 nM | TGI [35]: > 100000 nM | GI50 [36]: 11800 nM | TGI [36]: 39500 nM | GI50 [37]: 21700 nM | TGI [37]: 43800 nM | GI50 [38]: 22900 nM | TGI [38]: 46400 nM | GI50 [39]: 17100 nM | TGI [39]: 35200 nM | GI50 [40]: 21400 nM | TGI [40]: 54800 nM | GI50 [41]: 20400 nM | TGI [41]: 50300 nM | GI50 [42]: 19400 nM | TGI [42]: 40200 nM | GI50 [43]: > 100000 nM | TGI [43]: > 100000 nM | GI50 [44]: 17800 nM | TGI [44]: 36500 nM | GI50 [45]: 19800 nM | TGI [45]: 46300 nM | GI50 [46]: 18700 nM | TGI [46]: 35900 nM | GI50 [47]: 28300 nM | TGI [47]: > 100000 nM | GI50 [48]: 25100 nM | TGI [48]: 70300 nM | GI50 [49]: 15900 nM | TGI [49]: 36400 nM | GI50 [50]: 19300 nM | TGI [50]: 35700 nM | GI50 [51]: 20500 nM | TGI [51]: 47000 nM | GI50 [52]: 34800 nM | TGI [52]: > 100000 nM | GI50 [53]: 28400 nM | TGI [53]: 85200 nM | GI50 [54]: 49600 nM | TGI [54]: > 100000 nM | GI50 [55]: 25600 nM | TGI [55]: 73300 nM | GI50 [56]: 24700 nM | TGI [56]: 78200 nM | GI50 [57]: 32500 nM | TGI [57]: > 100000 nM | GI50 [58]: 65300 nM | TGI [58]: > 100000 nM
